Read-outs that look alike come from different tables or passages of the source. Numbered stars: 1 amine (or outer) side, 2 acyl side, 3 side chain; on linkers, the order of the positions; unused ones are H or OH. Square brackets hold non-standard residues; d marks the D form. Side chains are listed from the residue outwards. Peptide text beside a SMILES is read from it. * marks the point of attachment. C20 diacid = O=C(O)CCCCCCCCCCCCCCCCCCC(=O)*; γGlu = O=C(O)[C@H](CCC(=O)[*:2])N[*:1]; AEEA = NCCOCCOCC(=O)O; Aib = CC(C)(N)C(=O)O
What was measured:
[1] = Turbidity of crude library peptides (absorbance at 600 nm); type: physicochemical; conditions: Physical stability of peptides
In short: (§1)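 Values reflect mean ThT emission (ex 450, em 480 nm) over 72 h at 40° C, read every 10 min after 5 min shaking at 700 rpm, plus a single initial absorbance at 600 nm for turbidity. Peptides were at 267 μM, pH 4.0 acetate or pH 7.0 phosphate (50 mM), with 4 μM ThT.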

SCTR = SCTR (Homo sapiens, UniProt P47872); test: hSCTR potency, cAMP accumulation in CHO-K1 cells stably overexpressing hSCTR; type: cell-based; design: alternatively Euroscreen ES-712-AF; FAST-0161L; host or cells: CHO-K1; conditions: cAMP accumulation, CHO-K1 cells overexpressing hSCTR
Chain of SCTR (P47872 23-440): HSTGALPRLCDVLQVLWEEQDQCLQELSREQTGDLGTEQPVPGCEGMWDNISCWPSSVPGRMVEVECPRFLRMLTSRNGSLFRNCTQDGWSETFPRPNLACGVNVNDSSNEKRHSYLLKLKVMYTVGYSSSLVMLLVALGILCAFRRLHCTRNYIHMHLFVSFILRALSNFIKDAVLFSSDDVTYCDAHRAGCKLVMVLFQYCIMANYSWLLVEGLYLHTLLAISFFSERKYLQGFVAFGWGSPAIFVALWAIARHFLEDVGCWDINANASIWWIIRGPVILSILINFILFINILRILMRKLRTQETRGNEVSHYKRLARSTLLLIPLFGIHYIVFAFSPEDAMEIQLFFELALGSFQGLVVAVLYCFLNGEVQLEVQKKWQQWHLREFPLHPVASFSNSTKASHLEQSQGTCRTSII
In short: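 Division-arrested CHO-K1 cells stably expressing hSCTR were plated in DPBS with 0.05% casein and 0.5 mM IBMX, then stimulated with test peptide for 30 min at room temperature. cAMP was read by HTRF after one hour. EC50 came from variable-slope sigmoidal nonlinear regression.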

[2] = Fibril formation of crude library peptides (Thioflavin T); type: physicochemical; design: key: average ThT fluorescence emission at 480 nm (ex 450 nm), raw units; conditions: Physical stability of peptides
In short: as §1

GLP1R = GLP1R (Homo sapiens, UniProt P43220); test: hGLP1R potency, cAMP accumulation in CHO-K1 cells stably overexpressing hGLP1R; type: cell-based; design: host or cells: CHO-K1; conditions: for EC50: cAMP accumulation, CHO-K1 cells overexpressing hGLP1R; for SCTR EC50/GLP1R EC50 ratio: selectivity for hGLP1R over hSCTR, cAMP accumulation in CHO-K1 cells; for Selectivity: SCTR EC50/GLP1R EC50 ratio
Chain of GLP1R (P43220 24-463): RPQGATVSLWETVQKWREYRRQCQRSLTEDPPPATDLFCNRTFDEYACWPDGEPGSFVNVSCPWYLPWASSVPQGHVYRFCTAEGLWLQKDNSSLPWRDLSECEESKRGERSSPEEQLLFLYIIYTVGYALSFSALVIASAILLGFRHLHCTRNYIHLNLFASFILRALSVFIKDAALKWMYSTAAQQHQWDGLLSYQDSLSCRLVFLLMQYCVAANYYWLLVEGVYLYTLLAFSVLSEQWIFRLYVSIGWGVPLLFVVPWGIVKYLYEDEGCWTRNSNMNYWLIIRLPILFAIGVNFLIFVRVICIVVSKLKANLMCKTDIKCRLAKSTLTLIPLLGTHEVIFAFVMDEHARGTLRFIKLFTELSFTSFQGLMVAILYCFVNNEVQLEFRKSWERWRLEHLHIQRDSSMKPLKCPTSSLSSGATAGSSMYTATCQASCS
In short: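 Cells were plated in DPBS with 0.05% casein and 0.5 mM IBMX, then stimulated for 30 min at room temperature with test compound. cAMP was read by TR-FRET after one hour. EC50 came from variable-slope sigmoid nonlinear regression; purified peptides ran as 11-point 3-fold series, n=2.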

[3] = read-out: hSCTR pEC50 (converted)
[4] = read-out: hGLP1R pEC50 (converted)
[5] = read-out: pEC50 hSCTR (converted)
[6] = read-out: pEC50 hGLPR1 (converted)

SMILES | Turbidity (pH 7) [1] | EC50 (SCTR; [3]) [nM] | Fibril formation [2] | EC50 (GLP1R; [4]) [nM] | SCTR EC50/GLP1R EC50 ratio (GLP1R) | EC50 (SCTR; [5]) [nM] | Selectivity (GLP1R) | EC50 (GLP1R; [6]) [nM]
CC(C)C[C@H](NC(=O)[C@H](Cc1ccccc1)NC(=O)[C@H](CCCNC(=N)N)NC(=O)[C@H](CCC(N)=O)NC(=O)[C@H](CO)NC(=O)[C@H](C)NC(=O)[C@H](C)NC(=O)[C@H](CCC(=O)O)NC(=O)[C@H](CCC(=O)O)NC(=O)[C@H](CCCCNC(=O)COCCOCCNC(=O)COCCOCCNC(=O)CC[C@H](NC(=O)CCCCCCCCCCCCCCCCCCC(=O)O)C(=O)O)NC(=O)[C@H](CC(C)C)NC(=O)[C@H](CCC(=O)O)NC(=O)[C@H](CO)NC(=O)[C@@H](NC(=O)[C@H](CC(=O)O)NC(=O)[C@H](CO)NC(=O)[C@@H](NC(=O)[C@H](Cc1ccccc1)NC(=O)[C@@H](NC(=O)CNC(=O)[C@H](CCC(=O)O)NC(=O)C(C)(C)NC(=O)[C@@H](N)Cc1c[nH]cn1)[C@@H](C)O)[C@@H](C)O)C(C)C)C(=O)N[C@@H](CCC(=O)O)C(=O)N[C@@H](Cc1c[nH]cn1)C(=O)N[C@@H](CC(C)C)C(=O)N[C@H](C(N)=O)C(C)C [compound 87] (H-H[Aib]EGTFTSDVSELK([AEEA-AEEA-γGlu-C20 diacid])EEAASQRFLEHLV-NH2) | 0.08 | 1580 | 7811 | 0.0398 | 39811 | – | – | –
CC(C)C[C@H](NC(=O)[C@H](Cc1ccccc1)NC(=O)[C@H](CCCNC(=N)N)NC(=O)[C@H](CCC(N)=O)NC(=O)[C@H](C)NC(=O)[C@H](C)NC(=O)[C@H](C)NC(=O)[C@@H](NC(=O)[C@H](CCC(=O)O)NC(=O)[C@H](CCCCNC(=O)COCCOCCNC(=O)COCCOCCNC(=O)CC[C@H](NC(=O)CCCCCCCCCCCCCCCCCCC(=O)O)C(=O)O)NC(=O)[C@H](CC(C)C)NC(=O)[C@H](CCCNC(=N)N)NC(=O)[C@H](CO)NC(=O)[C@@H](NC(=O)[C@H](CC(=O)O)NC(=O)[C@H](CO)NC(=O)[C@@H](NC(=O)[C@H](Cc1ccccc1)NC(=O)[C@@H](NC(=O)CNC(=O)[C@H](CCC(=O)O)NC(=O)C(C)(C)NC(=O)[C@@H](N)Cc1c[nH]cn1)[C@@H](C)O)[C@@H](C)O)C(C)C)[C@@H](C)O)C(=O)N[C@@H](CCC(=O)O)C(=O)N[C@@H](Cc1c[nH]cn1)C(=O)N[C@@H](CC(C)C)C(=O)N[C@H](C(N)=O)C(C)C [compound 23] (H-H[Aib]EGTFTSDVSRLK([AEEA-AEEA-γGlu-C20 diacid])ETAAAQRFLEHLV-NH2) | 0.08 | – | 7462 | – | – | 158 | 8143 | 0.02
CC(C)C[C@H](NC(=O)CNC(=O)[C@H](CO)NC(=O)[C@@H](NC(=O)[C@H](CC(=O)O)NC(=O)[C@H](CO)NC(=O)[C@@H](NC(=O)[C@H](Cc1ccccc1)NC(=O)[C@@H](NC(=O)CNC(=O)[C@H](CCC(=O)O)NC(=O)C(C)(C)NC(=O)[C@@H](N)Cc1c[nH]cn1)[C@@H](C)O)[C@@H](C)O)C(C)C)C(=O)N[C@@H](CCCCNC(=O)COCCOCCNC(=O)COCCOCCNC(=O)CC[C@H](NC(=O)CCCCCCCCCCCCCCCCCCC(=O)O)C(=O)O)C(=O)N[C@@H](CCC(=O)O)C(=O)N[C@@H](CCC(=O)O)C(=O)N[C@@H](C)C(=O)NC(C)(C)C(=O)N[C@@H](CC(C)C)C(=O)N[C@@H](CCC(N)=O)C(=O)N[C@@H](CCCNC(=N)N)C(=O)N[C@@H](Cc1ccccc1)C(=O)N[C@@H](CC(C)C)C(=O)N[C@@H](CCC(=O)O)C(=O)N[C@@H](Cc1c[nH]cn1)C(=O)N[C@@H](CC(C)C)C(=O)N[C@H](C(N)=O)C(C)C [compound 167] (H-H[Aib]EGTFTSDVSGLK([AEEA-AEEA-γGlu-C20 diacid])EEA[Aib]LQRFLEHLV-NH2) | 0.08 | 100 | 4018 | 0.00631 | 16446 | – | – | –
CC(C)C[C@H](NC(=O)[C@H](Cc1ccccc1)NC(=O)[C@H](CCCNC(=N)N)NC(=O)[C@H](CCC(N)=O)NC(=O)[C@H](CO)NC(=O)[C@H](C)NC(=O)[C@H](C)NC(=O)[C@@H](NC(=O)[C@H](CCC(=O)O)NC(=O)[C@H](CCCCNC(=O)COCCOCCNC(=O)COCCOCCNC(=O)CC[C@H](NC(=O)CCCCCCCCCCCCCCCCCCC(=O)O)C(=O)O)NC(=O)[C@H](CC(C)C)NC(=O)[C@H](CCCNC(=N)N)NC(=O)[C@H](CO)NC(=O)[C@@H](NC(=O)[C@H](CC(=O)O)NC(=O)[C@H](CO)NC(=O)[C@@H](NC(=O)[C@H](Cc1ccccc1)NC(=O)[C@@H](NC(=O)CNC(=O)[C@H](CCC(=O)O)NC(=O)C(C)(C)NC(=O)[C@@H](N)Cc1c[nH]cn1)[C@@H](C)O)[C@@H](C)O)C(C)C)[C@@H](C)O)C(=O)N[C@@H](CCC(=O)O)C(=O)N[C@@H](Cc1c[nH]cn1)C(=O)N[C@@H](CC(C)C)C(=O)N[C@H](C(N)=O)C(C)C [compound 71] (H-H[Aib]EGTFTSDVSRLK([AEEA-AEEA-γGlu-C20 diacid])ETAASQRFLEHLV-NH2) | 0.08 | – | 231646 | – | – | 1000 | 13611 | 0.0631
CC[C@H](C)[C@H](NC(=O)[C@H](Cc1ccccc1)NC(=O)[C@H](CCCNC(=N)N)NC(=O)[C@H](CCC(N)=O)NC(=O)[C@H](CC(C)C)NC(=O)[C@H](C)NC(=O)[C@H](C)NC(=O)CNC(=O)[C@H](CCC(=O)O)NC(=O)[C@H](CC(C)C)NC(=O)[C@H](CC(C)C)NC(=O)[C@H](Cc1ccc(O)cc1)NC(=O)[C@H](CO)NC(=O)[C@@H]1CCCN1C(=O)[C@H](CC(=O)O)NC(=O)[C@H](CO)NC(=O)[C@@H](NC(=O)[C@H](Cc1ccccc1)NC(=O)[C@@H](NC(=O)CNC(=O)[C@H](CCC(=O)O)NC(=O)C(C)(C)NC(=O)[C@@H](N)Cc1c[nH]cn1)[C@@H](C)O)[C@@H](C)O)C(=O)N[C@@H](CCC(N)=O)C(=O)N[C@@H](Cc1c[nH]c2ccccc12)C(=O)N[C@@H](CC(C)C)C(=O)N[C@H](C(N)=O)C(C)C [compound 128] (H-H[Aib]EGTFTSDPSYLLEGAALQRFIQWLV-NH2) | 0.20 | 20000 | 6144 | 15.8 | 1467 | – | – | –
CC(C)C[C@H](NC(=O)[C@H](C)NC(=O)[C@H](C)NC(=O)[C@H](CCC(=O)O)NC(=O)[C@H](CCC(=O)O)NC(=O)[C@H](CCCCNC(=O)COCCOCCNC(=O)COCCOCCNC(=O)CC[C@H](NC(=O)CCCCCCCCCCCCCCCCCCC(=O)O)C(=O)O)NC(=O)[C@H](CC(C)C)NC(=O)[C@H](Cc1ccc(O)cc1)NC(=O)[C@H](CO)NC(=O)[C@@H](NC(=O)[C@H](CC(=O)O)NC(=O)[C@H](CO)NC(=O)[C@@H](NC(=O)[C@H](Cc1ccccc1)NC(=O)[C@@H](NC(=O)CNC(=O)[C@H](CCC(=O)O)NC(=O)C(C)(C)NC(=O)[C@@H](N)Cc1c[nH]cn1)[C@@H](C)O)[C@@H](C)O)C(C)C)C(=O)N[C@@H](CCC(N)=O)C(=O)N[C@@H](CCCNC(=N)N)C(=O)N[C@@H](Cc1ccccc1)C(=O)N[C@@H](CC(C)C)C(=O)N[C@@H](CCC(=O)O)C(=O)N[C@@H](Cc1c[nH]cn1)C(=O)N[C@@H](CC(C)C)C(=O)N[C@H](C(N)=O)C(C)C [compound 137] (H-H[Aib]EGTFTSDVSYLK([AEEA-AEEA-γGlu-C20 diacid])EEAALQRFLEHLV-NH2) | 0.09 | 79.4 | 4019 | 0.00794 | 9970 | – | – | –
CC(C)C[C@H](NC(=O)[C@H](Cc1ccccc1)NC(=O)[C@H](CCCNC(=N)N)NC(=O)[C@H](CCC(N)=O)NC(=O)[C@H](CCC(N)=O)NC(=O)[C@H](C)NC(=O)[C@H](C)NC(=O)[C@@H](NC(=O)[C@H](CCC(=O)O)NC(=O)[C@H](CCCCNC(=O)COCCOCCNC(=O)COCCOCCNC(=O)CC[C@H](NC(=O)CCCCCCCCCCCCCCCCCCC(=O)O)C(=O)O)NC(=O)[C@H](CC(C)C)NC(=O)[C@H](Cc1ccc(O)cc1)NC(=O)[C@H](CO)NC(=O)[C@@H](NC(=O)[C@H](CC(=O)O)NC(=O)[C@H](CO)NC(=O)[C@@H](NC(=O)[C@H](Cc1ccccc1)NC(=O)[C@@H](NC(=O)CNC(=O)[C@H](CCC(=O)O)NC(=O)C(C)(C)NC(=O)[C@@H](N)Cc1c[nH]cn1)[C@@H](C)O)[C@@H](C)O)C(C)C)[C@@H](C)O)C(=O)N[C@@H](CCC(=O)O)C(=O)N[C@@H](Cc1c[nH]cn1)C(=O)N[C@@H](CC(C)C)C(=O)N[C@H](C(N)=O)C(C)C [compound 58] (H-H[Aib]EGTFTSDVSYLK([AEEA-AEEA-γGlu-C20 diacid])ETAAQQRFLEHLV-NH2) | 0.08 | – | 22040 | – | – | 1000 | 35408 | 0.0251
